Results reported in publication PMC12735718, “Novel Adamantane–Sclareol Hybrids Exploit ROS Vulnerability to Overcome Multidrug-Resistance in Glioblastoma Cells” (Molecules, 2025).

How the values were obtained:
Assay type in all cases: cell-based, human
[1] = tested on: U87-TxR cells; assay: MTT cell viability assay, U87-TxR; conditions: Homo sapiens, U87-TxR; 72 h treatment, MTT, MDR cell line
Method: (§1) Cell viability was measured using the colorimetric MTT assay based on the reduction of MTT into formazan dye. Cell lines were seeded into 96-well cell culture plates (4000 cells/well) in appropriate medium. After overnight incubation, cells were treated with increasing concentrations of 1, 2, 3, 4, 5, and 6 (0.5, 1, 2, 4, and 8 µM). After 72 h treatment, MTT solution (4 mg/mL) was added and plates were incubated at 37 °C with 5% CO2 for 3 h. After incubation, formazan crystals were dissolved using 100 µL DMSO, resulting in a purple color. The absorbance was measured at 570 nm with a reference wavelength of 690 nm using an automated microplate reader (MultiskanSky, Thermo Scientific, USA). The IC50 values were determined by non-linear regression analysis in GraphPad Prism 8.0.2. software (GraphPad Software, Boston, MA, USA).

[2] = tested on: SVG p12 cells; assay: MTT cell viability assay, SVG p12; conditions: for IC50: Homo sapiens, SVGp12, 72 h treatment, MTT, normal glial cell line; for Selectivity Index: IC50 SVG p12 vs average IC50 in A-172, U87 and U87-TxR
Method: as §1

[3] = tested on: mitochondrial membrane potential in U87 and U87-TxR cells; assay: TMRE mitochondrial membrane potential; conditions: 4 µM, 24 h, both cell lines
Method: The cell-permeable fluorescent dye TMRE was used to evaluate mitochondrial membrane potential. TMRE selectively accumulates in active mitochondria with intact membrane potential. […] U87 and U87-TxR cells were seeded in 6-well plates at a density of 150,000 cells per well. After 24 h, cells were treated with 2 and 5 (4 µM) and incubated for an additional 24 h. After treatment, cells were trypsinized, resuspended in complete medium containing 500 nM TMRE, and incubated for 30 min at 37 °C in the dark. CCCP (10 µM) was used as a positive control for mitochondrial depolarization and added 30 min before staining. For each sample, at least 10,000 events were collected. TMRE was detected at […]. The results were calculated using CytExpert 2.4.0.28 software (Beckman Coulter, Indianapolis, IN, USA).

[4] = tested on: antioxidant-related gene mRNA in U87 cells; assay: RT-qPCR of oxidative-stress-related genes, U87; conditions: U87, 4 µM, 24 h; for increase in GPX1 mRNA expression: relative to untreated control
Method: Prior to RNA isolation, U87 and U87-TxR cell were treated with 4 μM 2 and 5 for 24 h. TRIzol® Reagent was used to isolate total RNA according to manufacturer’s instructions. RNA concentration was determined with NanoPhotometer N60 (Implen GmbH, Munchen, Germany). Quality was determined using electrophoresis on a 1.3% agarose gel. Reverse transcription reaction was carried out using High-Capacity cDNA Reverse Transcription Kit with RNase Inhibitor.
Quantitative RT-PCR (RT-qPCR) was performed to evaluate mRNA expression levels of CAT, GSR, SOD2, GPX1, GPX4, GST, TRX1, and TRXR1, with ACTB used as the reference gene. Reactions were carried out using Maxima SYBR Green/ROX qPCR Master Mix (Thermo Fisher Scientific, Waltham, MA, USA) in the QuantStudio™ 3 Real-Time PCR System (Applied Biosystems by Thermo Fisher Scientific). Thermocycling conditions consisted of an initial incubation at 50 °C for 5 min, followed by denaturation at 95 °C for 10 min and then 40 cycles of amplification with denaturation at 95 °C for 15 s and annealing/extension at 60 °C for 60 s. Relative gene expression levels were calculated using the ΔΔCt method, normalizing target gene expression to ACTB. All reactions were performed in technical triplicates.

[5] = tested on: TrxR1 protein in U87-TxR cells; assay: TrxR1 protein expression by flow cytometry, U87-TxR; conditions: 48 h; for protein level of TrxR1: 2 µM and 4 µM
Method: (§2) Flow cytometry was used to assess TrxR1 and ASK1 protein expression in the U87 and U87-TxR cell lines. Cells were seeded and allowed to attach overnight before exposure to compounds 2 and 5 at final concentrations of 2 μM and 4 μM. After 48 h treatment, cells were collected by trypsinization, rinsed with PBS, and subsequently fixed in 4% PFA for 10 min at room temperature. For permeabilization, ice-cold absolute methanol was added, and the samples were maintained at −20 °C overnight. Following this step, cells were washed in PBS and incubated for 1 h in 0.5% BSA/PBS to block nonspecific binding. Pelleted cells were then resuspended in primary antibodies diluted in 0.5% BSA/PBS [(ASK1, 1:200 (ab45178, Abcam, Cambridge, UK); TrxR1, 1:500 (ab124954, Abcam, Cambridge, UK)] and incubated overnight at +4 °C. Cells were then washed in PBS and incubated for 1 h at room temperature in the dark with fluorescently labeled anti-rabbit IgG secondary antibody (Alexa Fluor 488, ab150097, Abcam, Cambridge, UK), diluted 1:1000 in 0.5% BSA/PBS. Following incubation, samples were washed, resuspended in cold PBS, and analyzed by flow cytometry. A minimum of 10,000 events per sample were acquired, and fluorescence was detected in a green fluorescence channel (525 nm). Data acquisition and processing were performed using CytExpert software (version 2.4.0.28; Beckman Coulter, Indianapolis, IN, USA).

[6] = tested on: ASK1 protein in U87 cells; assay: ASK1 protein expression by flow cytometry, U87; conditions: U87, 2 µM and 4 µM, 48 h
Method: as §2

[7] = tested on: U87-TxR cells; assay: Combination with PTX, MTT assay; conditions: for combination index (CI) with PTX: CalcuSyn, 0.5-2 µM compound with 0.1-0.5 µM PTX, 72 h, CI < 1 synergistic
Method: as §1
The combined effects of 2 and 5 with PTX were studied in U87-TxR cells by MTT assay as previously described. In simultaneous treatments that lasted 72 h, three concentrations of 2 and 5 (0.5, 1, and 2 µM) were combined with three concentrations of PTX (0.1 μM, 0.2 μM, and 0.5 μM). Drug combination effects were evaluated using the Chou–Talalay method, which calculates the combination index (CI) value for the degree of interaction between the drugs. This method allows quantitative assessment of synergism (CI < 1), additivity (CI close to 1), or antagonism (CI > 1) across a range of dose–effect relationships. Calcusyn® version 1.1 software was used for data analysis (Biosoft, Cambridge UK). Three data points were used for each single drug in each designed experiment. The non-constant ratio combination was chosen to assess the effect of both drugs in combination. The results are presented in a fraction-affected CI graph.

SMILES	IC50 [1]	IC50 [2]	Selectivity Index [2]	TMRE fluorescence (mitochondrial membrane potential) [3]	CAT mRNA expression levels [4]	GSTP gene expression [4]	TRX1 mRNA [4]	increase in GPX1 mRNA expression [4]	protein level of TrxR1 [5]	ASK1 level [6]	Relative Reversal ([7]; 0.5 µM of the compound)	Relative Reversal ([7]; 1.0 µM of the compound)	Relative Reversal ([7]; 2.0 µM of the compound)	combination index (CI) with PTX [7]	increase in TrxR1 level ([5]; 4 µM, relative to untreated control)
CC1(C)CCC[C@]2(C)[C@@H](CC[C@@](C)(O)/C=C/c3ccc(CNCCCCCCCCNCC45CC6CC(CC(C6)C4)C5)s3)[C@](C)(O)CC[C@@H]12 [Compound 2]	1.96 ± 0.049 µM	6.2 ± 0.145 µM	2.813 ^S	decreased	remained unchanged	significantly increased	significant downregulation	1.8 fold	significantly increased	remained unchanged	1.75	1.68	3.05	< 1	–
CC1(C)CCC[C@]2(C)[C@@H](CC[C@@](C)(O)/C=C/c3ccc(CNCCCCCCCCNCC45CC6CC(CC(C6)C4)C5)o3)[C@](C)(O)CC[C@@H]12 [Compound 5]	3.78 ± 0.118 µM	6.69 ± 0.128 µM	1.470	decreased	remained unchanged	significantly increased	–	2.2 fold	significantly increased	remained unchanged	0.86	1.85	1.76	< 1	69%
